Tested on: human prolyl 4-hydroxylase
Assay: Expression of human prolyl 4-hydroxylase by Western blotting in oligonucleotide-treated HCT116 cells
Assay type: cell-based
Conditions: HCT116, 10 μM once per day for seven days
Procedure: The cell line used for testing is the human colon cancer cell line HCT116. Cells are cultured in RPMI-1640 with 10-15% fetal calf serum at a concentration of 10,000 cells per milliliter in a volume of 0.5 ml and kept at 37° C. in a 95% air/5% CO2 atmosphere.
Phosphorothioate oligoribonucleotides are synthesized on an Applied Biosystems Model 380B DNA synthesizer using phosphoroamidite chemistry. A sequence of 24 bases complementary to the nucleotides at position 1 to 24 of SEQ ID NO:1 or SEQ ID NO:3 is used as the test oligonucleotide. As a control, another (random) sequence is used: 5′-TCAACTGACTAGATGTACATGGAC-3′ (SEQ ID NO:11). Following assembly and deprotection, oligonucleotides are ethanol-precipitated twice, dried, and suspended in phosphate buffered saline at the desired concentration. Purity of the oligonucleotides is tested by capillary gel electrophoresis and ion exchange HPLC. The purified oligonucleotides are added to the culture medium at a concentration of 10 μM once per day for seven days.
This effect is not observed with the control oligonucleotide. After 3 to 7 days, the number of cells in the cultures is counted using an automatic cell counter. The number of cells in cultures treated with the test oligonucleotide (expressed as 100%) is compared with the number of cells in cultures treated with the control oligonucleotide.

Question: For “5′-TCAACTGACTAGATGTACATGGAC-3′ (TCAACTGACTAGATGTACATGGAC; listed as DNA, chemistry not given here) [control oligonucleotide]”, which “expression of human prolyl 4-hydroxylase as determined by Western blotting” value is on record?
Answer: not observed

— patent US20060110769A1, “Regulation of novel human prolyl 4-hydroxylases” (Bayer Aktiengesellschaft, priority 2001, published 2006)
